In ChEMBL document CHEMBL1125637, “Benzocycloalkyl amines as novel C-termini for HIV protease inhibitors” (J Med Chem, 1991):

Target: Human immunodeficiency virus type 1 protease (Human immunodeficiency virus 1, UniProt Q72874)
Experiment: Inhibition of HIV protease
Assay type: functional

| Structure (SMILES) | IC50 [nM] |
| --- | --- |
| CC(C)(C)OC(=O)N[C@@H](Cc1ccccc1)[C@@H](O)C[C@@H](Cc1ccccc1)C(=O)NC1c2ccccc2C[C@H]1C(N)=O (some centres not stated) | 1.8 |
| CC(C)(C)OC(=O)N[C@@H](Cc1ccccc1)[C@@H](O)C[C@@H](Cc1ccccc1)C(=O)N[C@@H]1CCc2ccccc21 | 19 |
| CC(C)(C)OC(=O)N[C@@H](Cc1ccccc1)[C@@H](O)C[C@@H](Cc1ccccc1)C(=O)N[C@H]1CCc2ccccc21 | 21 |
| CC(C)(C)OC(=O)N[C@@H](Cc1ccccc1)[C@@H](O)C[C@@H](Cc1ccccc1)C(=O)N[C@H]1c2ccccc2[C@@H](O)[C@H]1O | 0.1 |
| CC(C)(C)OC(=O)N[C@@H](Cc1ccccc1)[C@@H](O)C[C@@H](Cc1ccccc1)C(=O)NC1Cc2ccccc21 (some centres not stated) | 22 |
| CC(C)(C)OC(=O)N[C@@H](Cc1ccccc1)[C@@H](O)C[C@@H](Cc1ccccc1)C(=O)NCCc1ccccc1 | 2800 |
| CC(C)(C)OC(=O)N[C@@H](Cc1ccccc1)[C@@H](O)C[C@@H](Cc1ccccc1)C(=O)NC1CCCc2ccccc21 (some centres not stated) | 16 |
| CC(C)(C)OC(=O)N[C@@H](Cc1ccccc1)[C@@H](O)C[C@@H](Cc1ccccc1)C(=O)N[C@H]1c2ccccc2C[C@@H]1O (stereo in doubt; 10) | 229 |
| CC(C)(C)OC(=O)N[C@@H](Cc1ccccc1)[C@@H](O)C[C@@H](Cc1ccccc1)C(=O)NC1c2ccccc2[C@@H](N)[C@H]1O (some centres not stated) | 1.9 |
| CC(C)(C)OC(=O)N[C@@H](Cc1ccccc1)[C@@H](O)C[C@@H](Cc1ccccc1)C(=O)NC1Cc2ccccc2C1 | 130 |
| CC(C)(C)OC(=O)N[C@@H](Cc1ccccc1)[C@@H](O)C[C@@H](Cc1ccccc1)C(=O)N[C@H]1c2ccccc2C[C@@H]1O (stereo in doubt; 8) | 259 |
| CC(C)(C)OC(=O)N[C@@H](Cc1ccccc1)[C@@H](O)C[C@@H](Cc1ccccc1)C(=O)N[C@H]1c2ccccc2C[C@H]1O | 0.3 |
